Values quoted from earlier work in paper PMC11938273 (Journal of Chemical Information and Modeling, 2025).
*1 amine or outer side, *2 acyl side, *3 side chain or, on linkers, in order; H or OH if unused. Where a SMILES comes first, the peptide text is derived from it. Bridges are numbered along the chain shown (N, C = ends). Roman numbers before positions name the chains, in order. [ ]: non-standard residue; d: D form. Actinocin(9to1) = Cc1c2oc3c(C)ccc(C(=O)[*:1])c3nc-2c(C(=O)[*:2])c(N)c1=O; NMeV = CN[C@H](C(=O)O)C(C)C; Sar = CNCC(=O)O

Conditions: in vivo; cited from earlier work

SMILES	CNS status
CC[C@H]1OC(=O)[C@H](C)[C@@H](O[C@H]2C[C@@](C)(OC)[C@@H](O)[C@H](C)O2)[C@H](C)[C@@H](O[C@@H]2O[C@H](C)C[C@H](N(C)C)[C@H]2O)[C@](C)(OC)C[C@@H](C)C(=O)[C@H](C)[C@@H](O)[C@]1(C)O (mixture of isomers) [Clarithromycin, rac-(3R,4S,5S,6R,7R,9R,11R,12R,13S,14R)-6-(((2S,3R,4S,6R)-4-(dimethylamino)-3-hydroxy-6-methyltetrahydro-2H-pyran-2-yl)oxy)-14-ethyl-12,13-dihydroxy-4-(((2R,4R,5S,6S)-5-hydroxy-4-methoxy-4,6-dimethyltetrahydro-2H-pyran-2-yl)oxy)-7-methoxy-3,5,7,9,11,13-hexamethyloxacyclotetradecane-2,10-dione]	Negative
CCC(C)CCCC(=O)N[C@H](CCN)C(=O)N[C@@H](C(=O)N[C@H](CCN)C(=O)N[C@@H]1CCNC(=O)[C@H]([C@H](C)O)NC(=O)[C@@H](CCN)NC(=O)[C@@H](CCN)NC(=O)[C@@H](CC(C)C)NC(=O)[C@H](CC(C)C)NC(=O)[C@@H](CCN)NC1=O)[C@H](C)O (mixture of isomers) [Colistin, rac-N-((R)-4-amino-1-(((2R,3S)-1-(((R)-4-amino-1-oxo-1-(((3S,6R,9R,12R,15S,18R,21R)-6,9,18-tris(2-aminoethyl)-3-((S)-1-hydroxyethyl)-12,15-diisobutyl-2,5,8,11,14,17,20-heptaoxo-1,4,7,10,13,16,19-heptaazacyclotricosan-21-yl)amino)butan-2-yl)amino)-3-hydroxy-1-oxobutan-2-yl)amino)-1-oxobutan-2-yl)-5-methylheptanamide]	Negative
C[C@@H](CN1CC(=O)NC(=O)C1)N1CC(=O)NC(=O)C1 (racemic) [Dexrazoxane, rac-(R)-4,4'-(propane-1,2-diyl)bis(piperazine-2,6-dione)]	Negative
C[C@H](N)[C@H](O)c1cccc(O)c1 (racemic) [Metaraminol, rac-3-((1R,2S)-2-amino-1-hydroxypropyl)phenol]	Negative
CC(C)CCCCC(=O)N[C@@H](CCN)C(=O)N[C@H](C(=O)N[C@@H](CCN)C(=O)N[C@H]1CCNC(=O)[C@H]([C@@H](C)O)NC(=O)[C@H](CCN)NC(=O)[C@H](CCN)NC(=O)[C@H](CC(C)C)NC(=O)[C@@H](Cc2ccccc2)NC(=O)[C@H](CCN)NC1=O)[C@@H](C)O (racemic) [Polymyxin B2, rac-N-((R)-4-amino-1-(((2R,3S)-1-(((R)-4-amino-1-oxo-1-(((3R,6R,9R,12R,15S,18R,21R)-6,9,18-tris(2-aminoethyl)-15-benzyl-3-((S)-1-hydroxyethyl)-12-isobutyl-2,5,8,11,14,17,20-heptaoxo-1,4,7,10,13,16,19-heptaazacyclotricosan-21-yl)amino)butan-2-yl)amino)-3-hydroxy-1-oxobutan-2-yl)amino)-1-oxobutan-2-yl)-6-methylheptanamide]	Negative
COC(=O)[C@H](c1ccccc1)[C@H]1CCCCN1 (racemic) [Ritalin, rac-methyl (R)-2-phenyl-2-((R)-piperidin-2-yl)acetate]	Positive
COC(=O)[C@H]1[C@@H](c2ccc(I)cc2)C[C@@H]2CC[C@H]1N2CCCF (racemic) [beta-CIT-FP, rac-methyl(1R,2S,3S,5S)-8-(3-fluoropropyl)-3-(4-iodophenyl)-8-azabicyclo[3.2.1]octane-2-carboxylate]	Positive
C[N+]1(CC2CC2)CC[C@]23c4c5ccc(O)c4O[C@H]2C(=O)CC[C@@]3(O)C1C5 (stereo in doubt) [Methylnaltrexone bromide, (3S,4S,4aS,7aR,12bS)-3-(cyclopropylmethyl)-4a,9-dihydroxy-3-methyl-7-oxo-2,3,4,4a,5,6,7,7a-octahydro-1H-4,12-methanobenzofuro[3,2-e]isoquinolin-3-ium]	Negative
CN1[C@H]2CC[C@@H]1[C@@H](C(=O)OCCF)[C@@H](c1ccc(I)cc1)C2 [2-FE-beta-CIT, (1R,2S,3S,5S)-2-fluoroethyl-3-(4-iodophenyl)-8-methyl-8-azabicyclo[3.2.1]octane-2-carboxylate]	Positive
CNc1ccc(-c2nc3ccc(O)cc3s2)cc1 [6-OH-BTA-1 (PiB), 2-(4-(Methylamino)phenyl)benzo[d]thiazol-6-ol]	Positive
CNc1ccc(-c2nc3ccc(O)cc3s2)cc1 [6-meO-BTA-0, 2-(4-(Methylamino)phenyl)benzo[d]thiazol-6-ol]	Negative
Cc1c2oc3c(C)ccc(C(=O)N[C@@H]4C(=O)N[C@H](C(C)C)C(=O)N5CCC[C@H]5C(=O)N(C)CC(=O)N(C)[C@@H](C(C)C)C(=O)O[C@@H]4C)c3nc-2c(C(=O)N[C@@H]2C(=O)N[C@H](C(C)C)C(=O)N3CCC[C@H]3C(=O)N(C)CC(=O)N(C)[C@@H](C(C)C)C(=O)O[C@@H]2C)c(N)c1=O [Actinomycin D] (I: T[dV]P[Sar][NMeV] / II: T[dV]P[Sar][NMeV]; ester I:1-I:C, II:1-II:C; linker I:N-II:N via Actinocin(9to1))	Efflux transporter substrate
O=C(c1ccc(F)cc1)C1CCN(CCn2c(=S)[nH]c3ccccc3c2=O)CC1 [Altanserin, 3-[2-[4-(4-fluorobenzoyl)piperidin-1-yl]ethyl]-2-sulfanylidene-1H-quinazolin-4-one]	Positive
CN(C(=O)C(c1ccccc1)c1ccccc1)[C@H](CN1CC[C@H](O)C1)c1ccccc1 [Asimadoline, N-{(1S)-2-[(3S)-3-Hydroxy-1-pyrrolidinyl]-1-phenylethyl}-Nmethyl-2,2-diphenylacetamide]	Efflux transporter substrate
CCOC(=O)c1ncn2c1CN(C)C(=O)c1cc(N=[N+]=[N-])ccc1-2 [Azidomazenil, Ethyl-8-azido-5-methyl-6-oxo-4H-imidazo[1,5-a][1,4]benzodiazepine-3-carboxylate]	Positive
CCCC(=O)OC1CCN(C)CC1 [BMP, 1-methylpiperidin-4-yl butyrate]	Positive

SMILES	CNS status
C(=N\NC1=NCCN1)/c1c2ccccc2c(/C=N/NC2=NCCN2)c2ccccc12 [Bisantrene, N-[(E)-[10-[(E)-(4,5-dihydro-1H-imidazol-2-ylhydrazinylidene)methyl]anthracen-9-yl]methylideneamino]-4,5-dihydro-1H-imidazol-2-amine]	Efflux transporter substrate
COC(=O)[C@H]1[C@@H](c2ccc(I)cc2)C[C@@H]2CC[C@H]1N2CCF [CIT-FE, (1R,2S,3S,5S)-methyl 8-(2-fluoroethyl)-3-(4-iodophenyl)-8-azabicyclo[3.2.1]octane-2-carboxylate]	Positive
CCOc1nc2cccc(C(=O)O)c2n1Cc1ccc(-c2ccccc2-c2nnn[nH]2)cc1 [Candesartan, 1-((2'-(2H-tetrazol-5-yl)-[1,1'-biphenyl]-4-yl)methyl)-2-ethoxy-1H-benzo[d]imidazole-7-carboxylic acid]	Negative
CC(C)NCC(O)COc1cccc2[nH]c3ccccc3c12 (centres unmarked) [Carazolol, 1-((9H-carbazol-4-yl)oxy)-3-(isopropylamino)propan-2-ol]	Positive
C[C@@](Cc1ccc(O)c(O)c1)(NN)C(=O)O [Carbidopa, (2S)-3-(3,4-Dihydroxyphenyl)-2-hydrazino-2-methylpropanoic acid]	Negative
Cc1ccc(-c2cc(C(F)(F)F)nn2-c2ccc(S(N)(=O)=O)cc2)cc1 [Celecoxib, 4-[5-(4-Methylphenyl)-3-(trifluoromethyl)-1H-pyrazol-1-yl]benzenesulfonamide]	Negative
CN/C(=N/CCSCc1nc[nH]c1C)NC#N [Cimetidine, 1-Cyano-2-methyl-3-(2-{[(4-methyl-1H-imidazol5-yl)methyl]sulfanyl}ethyl)guanidine]	Efflux transporter substrate
COc1ccc(OC)c(CN(C(C)=O)c2cc(F)ccc2Oc2ccccc2)c1 [DAA1106, N-(2,5-dimethoxybenzyl)-N-(5-fluoro-2-phenoxyphenyl)acetamide]	Positive
CN(C)Cc1ccccc1Sc1ccc(C#N)cc1N [DASB, 3-Amino-4-((2-((dimethylamino)methyl)phenyl)thio)benzonitrile]	Positive
COc1cccc2c1C(=O)c1c(O)c3c(c(O)c1C2=O)C[C@@](O)(C(C)=O)C[C@@H]3O[C@H]1C[C@H](N)[C@H](O)[C@H](C)O1 [Daunorubicin, (1S,3S)-3-Acetyl-3,5,12-trihydroxy-10-methoxy-6,11-dioxo-1,2,3,4,6,11-hexahydro-1-tetracenyl 3-amino-2,3,6-trideoxy-α-L-lyxo-hexopyranoside]	Efflux transporter substrate
COc1cccc2c1C(=O)c1c(O)c3c(c(O)c1C2=O)C[C@@](O)(C(=O)CO)C[C@@H]3O[C@H]1C[C@H](N)[C@H](O)[C@H](C)O1 [Doxorubicin, (1S,3S)-3-Glycoloyl-3,5,12-trihydroxy-10-methoxy-6,11-dioxo-1,2,3,4,6,11-hexahydro-1-tetracenyl 3-amino-2,3,6-trideoxy-α-L-lyxo-hexopyranoside]	Efflux transporter substrate
CCN(CC)C(=O)/C(C#N)=C/c1cc(O)c(O)c([N+](=O)[O-])c1 [Entacapone, (2E)-2-Cyano-3-(3,4-dihydroxy-5-nitrophenyl)-N,N-diethylacrylamide]	Negative
CCN1CCC[C@H]1CNC(=O)c1cc(I)cc(OC)c1OC [Epidepride, (S)-N-((1-ethylpyrrolidin-2-yl)methyl)-5-iodo-2,3-dimethoxybenzamide]	Positive
COc1cccc2c1C(=O)c1c(O)c3c(c(O)c1C2=O)C[C@@](O)(C(=O)CO)C[C@@H]3O[C@H]1C[C@H](N)[C@@H](O)[C@H](C)O1 [Epirubicin, (1S,3S)-3-Glycoloyl-3,5,12-trihydroxy-10-methoxy-6,11-dioxo-1,2,3,4,6,11-hexahydro-1-tetracenyl 3-amino-2,3,6-trideoxy-α-L-arabino-hexopyranoside]	Efflux transporter substrate
C#Cc1cccc(Nc2ncnc3cc(OCCOC)c(OCCOC)cc23)c1 [Erlotinib, N-(3-Ethynylphenyl)-6,7-bis(2-methoxyethoxy)-4-quinazolinamine]	Efflux transporter substrate
CCOC(=O)c1cncn1[C@H](C)c1ccccc1 [Etomidate, (R)-ethyl 1-(1-phenylethyl)-1H-imidazole-5-carboxylate]	Positive
